Read-outs that look alike come from different tables or passages of the source.
Assays:
[1] = system: Key Broadleaf Weed and Crop Species; assay: Post-emergent Test II herbicidal activity (Table 5); assay type: in vivo; conditions: post-emergence, 336 h, 14 days after application; for pest or weed control at 70 g/ha: application rate 70 g ai/ha; for pest or weed control at 140 g/ha: application rate 140 g ai/ha
Summary of the method: (§1)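 Spray rates: a highest rate plus ½×, ¼×, ⅛×, 1/16×, all delivered at 187 L/ha to plants at the first–second true leaf stage. Readout is a visual percent injury score at 14 d, where 100 means complete kill.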

[2] = system: Key Grass and Sedge Weeds as well as Grass Crops; assay: Post-emergent Test II herbicidal activity (Table 6); assay type: in vivo; conditions: post-emergence, 336 h; for pest or weed control at 70 g/ha: 70 g ai/ha; for pest or weed control at 140 g/ha: 140 g ai/ha
Summary of the method: as §1

[3] = ABUTH: velvetleaf (Abutilon theophrasti), read-out: Visual Growth Reduction (%) 14 Days After Application, ABUTH
[4] = AMARE: redroot pigweed (Amaranthus retroflexus), read-out: Visual Growth Reduction (%) 14 Days After Application, AMARE
[5] = BRSNN: oilseed-rape, canola (Brassica napus), read-out: Visual Growth Reduction (%) 14 Days After Application, BRSNN
[6] = CHEAL: lambsquarters (Chenopodium album), read-out: Visual Growth Reduction (%) 14 Days After Application, CHEAL
[7] = EPHHL: wild poinsettia (Euphorbia heterophylla), read-out: Visual Growth Reduction (%) 14 Days After Application, EPHHL
[8] = HELAN: sunflower (Helianthus annuus), read-out: Visual Growth Reduction (%) 14 Days After Application, HELAN
[9] = VIOTR: wild pansy (Viola tricolor), read-out: Visual Growth Reduction (%) 14 Days After Application, VIOTR
[10] = CYPES: yellow nutsedge (Cyperus esculentus), read-out: Visual Growth Reduction (%) 14 Days After Application, CYPES
[11] = DIGSA: crabgrass (Digitaria sanguinalis), read-out: Visual Growth Reduction (%) 14 Days After Application, DIGSA
[12] = ECHCG: barnyardgrass (Echinochloa crus-galli), read-out: Visual Growth Reduction (%) 14 Days After Application, ECHCG
[13] = ORYSA: rice (Oryza sativa), crop, read-out: Visual Growth Reduction (%) 14 Days After Application, ORYSA
[14] = SETFA: giant foxtail (Setaria faberi), read-out: Visual Growth Reduction (%) 14 Days After Application, SETFA
[15] = SORVU: grain sorghum (Sorghum vulgare), read-out: Visual Growth Reduction (%) 14 Days After Application, SORVU
[16] = TRZSS (wheat, Triticum aestivum), crop, read-out: Visual Growth Reduction (%) 14 Days After Application, TRZSS
[17] = ZEAMX: maize, corn (Zea mays), crop, read-out: Visual Growth Reduction (%) 14 Days After Application, ZEAMX

For `COC(=O)c1nc(-c2ccc(C#N)c(F)c2)c(F)c(N)c1Cl` [Compound 135, methyl 4-amino-3-chloro-6-(4-cyano-3-fluorophenyl)-5-fluoropicolinate], the pest or weed control at 70 g/ha [1, 3] was 95 to 100%, the pest or weed control at 140 g/ha [1, 3] was 95 to 100% and the pest or weed control at 70 g/ha [1, 4] was 95 to 100%. The pest or weed control at 140 g/ha [1, 4] was 95 to 100%, the pest or weed control at 70 g/ha [1, 5] was 60 to 74% and the pest or weed control at 140 g/ha [1, 5] was 60 to 74%. It also gave a pest or weed control at 70 g/ha [1, 6] of 95 to 100%, a pest or weed control at 140 g/ha [1, 6] of 95 to 100% and a pest or weed control at 70 g/ha [1, 7] of 95 to 100%. For the same compound, the pest or weed control at 140 g/ha [1, 7] was 95 to 100%, the pest or weed control at 70 g/ha [1, 8] was 95 to 100% and the pest or weed control at 140 g/ha [1, 8] was 95 to 100%. For the same compound, the pest or weed control at 70 g/ha [1, 9] was 60 to 74%, the pest or weed control at 140 g/ha [1, 9] was 60 to 74% and the pest or weed control at 70 g/ha [2, 10] was 85 to 94%. For the same compound, the pest or weed control at 140 g/ha [2, 10] was 95 to 100%, the pest or weed control at 70 g/ha [2, 11] was 60 to 74% and the pest or weed control at 140 g/ha [2, 11] was 75 to 84%. It also gave a pest or weed control at 70 g/ha [2, 12] of 95 to 100%, a pest or weed control at 140 g/ha [2, 12] of 95 to 100% and a pest or weed control at 70 g/ha [2, 13] of 0 to 29%. For the same compound, the pest or weed control at 140 g/ha [2, 13] was 0 to 29%, the pest or weed control at 70 g/ha [2, 14] was 60 to 74% and the pest or weed control at 140 g/ha [2, 14] was 75 to 84%. It also gave a pest or weed control at 70 g/ha [2, 15] of 75 to 84%, a pest or weed control at 140 g/ha [2, 15] of 85 to 94% and a pest or weed control at 70 g/ha [2, 16] of 30 to 44%. It also gave a pest or weed control at 140 g/ha [2, 16] of 30 to 44%, a pest or weed control at 70 g/ha [2, 17] of 75 to 84% and a pest or weed control at 140 g/ha [2, 17] of 75 to 84%.

Source: US9113629B2, “4-amino-6-(4-substituted-phenyl)-picolinates and 6-amino-2-(4-substituted-phenyl)-pyrimidine-4-carboxylates and their use as herbicides” (DOW AGROSCIENCES LLC, priority 2013, dated 2015)
